# Read-outs that look alike come from different tables or passages of the source.
# Key:
# HIV = conditions: cited from earlier work
# HIV-2 (ROD) = experiment: Anti-HIV activity in MT-4 cell cultures, HIV-2; type: cell-based; conditions: read-out: av. IC50, average, MT-4 cells
# MT-4 cells = experiment: Cytotoxicity evaluation in uninfected MT-4 cells; type: cell-based
# [1] = tested on: HIV-1 (IIIB) and HIV-2 (ROD) strains; type: cell-based; conditions: for IC50: read-out: IC50 values, text summary over HIV-1 (IIIB) and HIV-2 (ROD) strains
Compound,antiviral (anti-HIV) activity in words [1],IC50 [1],also measured
"c1cc(CN2CCCNCCNCCCNCC2)ccc1CN1CCCNCCNCCCNCC1 [AMD3100, xylylbicyclam]",–,–,"IC50 (HIV; read-out: IC50 against HIV, entry inhibitor drug against HIV): < 0.1 µM"
"O=S(=O)([O-])[O-].O=S(=O)([O-])[O-].[O]=[V+2].[O]=[V+2].c1cc(CN2CCCNCCNCCCNCC2)ccc1CN1CCCNCCNCCCNCC1 [Complex 3, oxovanadium(IV)-(xylylbicyclam) disulfate]",highly active,1 to 5 µM,IC50 (HIV-2 (ROD)): 3.3 µM; CC50 (MT-4 cells): > 151 µM
"[Cl-].[Cl-].[Cl-].[Cl-].[O]=[V+2].[O]=[V+2].c1cc(CN2CCCNCCNCCCNCC2)ccc1CN1CCCNCCNCCCNCC1 [Complex 4, oxovanadium(IV)-(xylylbicyclam) tetrachloride]",highly active,0.1 to 0.3 µM,"CC50 (MT-4 cells; read-out: av. CC50, average, uninfected MT-4 cells): > 161 µM; CC50 (MT-4 cells; single determinations, reduces viability of uninfected MT-4 cells by 50%): > 161 µM"
Co(III)-cyclam,–,–,anti-HIV activity of metal cyclams in words (HIV): inactive
Pd(II)-cyclam,–,–,anti-HIV activity of metal cyclams in words (HIV): inactive
oxovanadium(IV)-cyclam dichloride [Complex 2],inactive,> 360 µM,–
oxovanadium(IV)-cyclam sulfate [Complex 1],inactive,> 340 µM,–
